Results taken from US11279681B2, “3-alkyl bicyclic [4,5,0] hydroxamic acids as HDAC inhibitors” (Valo Health, Inc., priority 2015, dated 2022).

molecular target: T1, HDAC6 (Homo sapiens, UniProt Q9UBN7); assay: In vitro histone deacetylase assay: enzymatic HDAC6 electrophoretic mobility shift assay; type: biochemical; conditions: full length human recombinant HDAC6, 1 nM enzyme, 2 μM peptide substrate RHKK(Ac)-NH2, 25° C.; read-out: Inhibitory Concentration (IC50) Values for Representative Compounds against HDAC6, Activity Range
T1 sequence (Q9UBN7 1-1215): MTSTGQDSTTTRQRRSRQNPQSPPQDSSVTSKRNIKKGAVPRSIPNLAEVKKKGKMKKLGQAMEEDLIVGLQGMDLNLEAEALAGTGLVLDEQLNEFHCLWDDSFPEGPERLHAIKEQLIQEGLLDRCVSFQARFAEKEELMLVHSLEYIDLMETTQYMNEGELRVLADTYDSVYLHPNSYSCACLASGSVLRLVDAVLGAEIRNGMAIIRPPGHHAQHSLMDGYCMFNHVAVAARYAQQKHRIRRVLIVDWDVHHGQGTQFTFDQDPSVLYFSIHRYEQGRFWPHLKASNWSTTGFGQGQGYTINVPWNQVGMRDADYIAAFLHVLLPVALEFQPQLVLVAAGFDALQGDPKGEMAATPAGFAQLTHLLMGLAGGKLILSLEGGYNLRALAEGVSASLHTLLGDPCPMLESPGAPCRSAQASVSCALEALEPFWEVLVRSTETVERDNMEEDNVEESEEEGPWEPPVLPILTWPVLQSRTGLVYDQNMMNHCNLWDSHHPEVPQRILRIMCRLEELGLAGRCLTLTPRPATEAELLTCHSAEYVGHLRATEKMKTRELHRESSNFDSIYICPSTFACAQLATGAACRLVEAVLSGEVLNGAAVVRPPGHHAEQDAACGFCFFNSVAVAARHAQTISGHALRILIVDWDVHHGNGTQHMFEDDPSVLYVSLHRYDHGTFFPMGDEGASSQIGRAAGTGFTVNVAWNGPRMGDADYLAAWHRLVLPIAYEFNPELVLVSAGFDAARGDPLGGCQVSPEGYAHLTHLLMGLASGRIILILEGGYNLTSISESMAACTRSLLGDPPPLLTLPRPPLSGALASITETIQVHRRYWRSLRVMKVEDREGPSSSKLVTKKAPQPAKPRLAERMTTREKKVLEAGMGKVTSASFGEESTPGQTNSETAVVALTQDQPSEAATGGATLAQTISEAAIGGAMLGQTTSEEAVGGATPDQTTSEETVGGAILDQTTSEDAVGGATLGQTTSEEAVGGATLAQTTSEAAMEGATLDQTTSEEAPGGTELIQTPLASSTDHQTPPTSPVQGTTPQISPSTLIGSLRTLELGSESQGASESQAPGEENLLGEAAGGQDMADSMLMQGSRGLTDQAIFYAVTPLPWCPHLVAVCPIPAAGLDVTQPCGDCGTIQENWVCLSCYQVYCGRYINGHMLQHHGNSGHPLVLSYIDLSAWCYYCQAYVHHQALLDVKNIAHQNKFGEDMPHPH
Protocol: The enzymatic HDAC6 assay was performed using electrophoretic mobility shift assay. […] The enzymatic reactions were assembled in 384 well plates in a total volume of 25 μL in a reaction buffer composing: 100 mM HEPES, pH7.5, 25 mM KCl, 0.1% bovine serum albumin, 0.01% Triton X-100, 1% DMSO (from compounds) 2 μM of the fluorescently labeled peptide substrate and enzyme. The enzyme was added at a final concentration of 1 nM. The peptide substrate RHKK(Ac)-NH2 was used. The compounds were tested at 12 concentrations spaced by 3× dilution intervals. Negative control samples (0%-inhibition in the absence of inhibitor) and positive control samples (100%-inhibition) were assembled in replicates of four in each assay plate. The reactions were incubated at 25° C. and quenched by the addition of 45 μL of termination buffer (100 mM HEPES, pH 7.5, 0.01% Triton X-100, 0.05% SDS).
The terminated assay plates were analyzed on LabChip® 3000 microfluidic electrophoresis instrument (Perkin Elmer/Caliper Life Sciences). The fluorescence intensity of the electrophoretically separated de-acetylated product and substrate peptide was measured. Activity in each sample was determined as the product to sum ratio (PSR): P/(S+P), where P is the peak height of the product peptide and S is the peak height of the substrate peptide. Percent inhibition (Pinh) is determined using the following equation:
Pinh=(PSR0%−PSRinh)/(PSR0%−PSR100%)*100, where PSRinh is the product sum ratio in the presence of inhibitor, PSR0% is the average product sum ration in the absence of inhibitor and PSR100% is the average product sum ratio in 100%-inhibition control samples. The IC50 values of inhibitors were determined by fitting the %-inhibition curves with 4 parameter dose-response model using XLfit 4 software.

Structure (SMILES)	IC50 [nM]
O=C(NO)c1ccc2c(c1)OCCN(c1nc3ccccc3n1CC1CCCCC1)C2	100 to 500
O=C(NO)c1ccc2c(c1)OCCN(c1nc3ccccc3o1)C2	≤ 100
CN(C)CCN1CCOc2cc(C(=O)NO)ccc2C1	> 500
CC(=O)N1CCCC(CN2CC(=O)Nc3ccc(C(=O)NO)cc3C2)C1 (stereo not shown)	> 500
O=C1CN(Cc2coc(-c3cccc(F)c3)n2)Cc2cc(C(=O)NO)ccc2N1	≤ 100
O=C1CN(Cc2ccccc2Cl)Cc2cc(C(=O)NO)ccc2N1	100 to 500
COc1ccc(CN2CC(=O)Nc3ccc(C(=O)NO)cc3C2)c(F)c1	≤ 100
O=C1CN(Cc2cccc3c2OC(F)(F)O3)Cc2cc(C(=O)NO)ccc2N1	≤ 100
O=C1CN(Cc2cc(F)ccc2F)Cc2cc(C(=O)NO)ccc2N1	100 to 500
CN(C)Cc1cccc(CN2CC(=O)Nc3ccc(C(=O)NO)cc3C2)c1	> 500
O=C1CN(Cc2cccc(Cl)c2)Cc2cc(C(=O)NO)ccc2N1	100 to 500
O=C1CN(Cc2cc(Cl)cc(Cl)c2)Cc2cc(C(=O)NO)ccc2N1	≤ 100
O=C1CN(Cc2cc(F)cc(F)c2)Cc2cc(C(=O)NO)ccc2N1	100 to 500
CC(C)(C)Oc1ccc(CN2CC(=O)Nc3ccc(C(=O)NO)cc3C2)cc1	100 to 500
O=C1CN(Cc2ccc(Cl)cc2)Cc2cc(C(=O)NO)ccc2N1	≤ 100
N#Cc1ccc(CN2CC(=O)Nc3ccc(C(=O)NO)cc3C2)cc1	100 to 500
O=C1CN(CC2CC2)Cc2cc(C(=O)NO)ccc2N1	100 to 500
COc1ccc(OC(=O)N2CCOc3cc(C(=O)NO)ccc3C2)cc1	≤ 100
O=C1CN(Cc2nccs2)Cc2cc(C(=O)NO)ccc2N1	> 500
CC(C)N1CCC(CN2CC(=O)Nc3ccc(C(=O)NO)cc3C2)CC1	> 500
O=C1CN(Cc2ccccc2OC(F)(F)F)Cc2cc(C(=O)NO)ccc2N1	≤ 100
O=C1CN(Cc2cccc(OC(F)(F)F)c2)Cc2cc(C(=O)NO)ccc2N1	100 to 500
O=C1CN(Cc2cccc(Oc3ccccc3)c2)Cc2cc(C(=O)NO)ccc2N1	100 to 500
O=C1CN(Cc2ccc(-n3cccn3)cc2)Cc2cc(C(=O)NO)ccc2N1	≤ 100
O=C1CN(Cc2ccc(-n3cccc3)cc2)Cc2cc(C(=O)NO)ccc2N1	≤ 100
O=C1CN(Cc2ccc(-c3nccs3)cc2)Cc2cc(C(=O)NO)ccc2N1	≤ 100

Structure (SMILES)	IC50 [nM]
CC(C)c1ccc(CN2CC(=O)Nc3ccc(C(=O)NO)cc3C2)cc1	≤ 100
CC(C)Oc1ccc(CN2CC(=O)Nc3ccc(C(=O)NO)cc3C2)cc1	≤ 100
O=C1CN(Cc2ccc(-c3ccccn3)cc2)Cc2cc(C(=O)NO)ccc2N1	≤ 100
O=C1CN(Cc2ccc(OC(F)(F)F)cc2)Cc2cc(C(=O)NO)ccc2N1	100 to 500
O=C1CN(Cc2ccc(Oc3ccccc3)cc2)Cc2cc(C(=O)NO)ccc2N1	≤ 100
CC(C)c1ccc(CN2CC(=O)Nc3ccc(C(=O)NO)cc3C2)nc1	100 to 500
O=C1CN(CC2CCOC2)Cc2cc(C(=O)NO)ccc2N1 (stereo not shown)	> 500
O=C1CN(Cc2ccccn2)Cc2cc(C(=O)NO)ccc2N1	> 500
O=C1CN(Cc2cccnc2)Cc2cc(C(=O)NO)ccc2N1	100 to 500
O=C1CN(Cc2ccncc2)Cc2cc(C(=O)NO)ccc2N1	100 to 500
O=C1CN(Cc2cncnc2)Cc2cc(C(=O)NO)ccc2N1	> 500
COCCn1c(N2CCOc3ccc(C(=O)NO)cc3C2)nc2ccccc21	100 to 500
O=C(NO)c1ccc2c(c1)OCCN(c1nc3ccccc3n1CC1CCOCC1)C2	100 to 500
Cn1ccnc1CN1CC(=O)Nc2ccc(C(=O)NO)cc2C1	100 to 500
O=C1CN(Cc2ccnc(N3CCOCC3)c2)Cc2cc(C(=O)NO)ccc2N1	100 to 500
COc1ccc(CN2Cc3ccc(C(=O)NO)cc3OCC2(C)C)cc1	100 to 500
COc1ccc(CN2CCOc3ccc(C(=O)NO)cc3C2)nc1	> 500
COc1ccc(CN2CCOc3cc(C(=O)NO)ccc3C2)nc1	100 to 500
COc1ccc(CN2CCOc3ccc(C(=O)NO)cc3C2)cn1	> 500
COc1ccc(CN2CCOc3cc(C(=O)NO)ccc3C2)cn1	100 to 500
O=C1CN(Cc2cn3ccccc3n2)Cc2cc(C(=O)NO)ccc2N1	≤ 100
O=C1CN(Cc2ccn3ccnc3c2)Cc2cc(C(=O)NO)ccc2N1	100 to 500
O=C1CN(Cc2cccc3ccccc23)Cc2cc(C(=O)NO)ccc2N1	≤ 100
O=C1CN(Cc2ccc3ccccc3c2)Cc2cc(C(=O)NO)ccc2N1	≤ 100
O=C(NO)c1ccc2c(c1)OCCN(C(=O)N1CCCCC1)C2	≤ 100
O=C(NO)c1ccc2c(c1)OCCN(S(=O)(=O)N1CCCCC1)C2	≤ 100

Structure (SMILES)	IC50 [nM]
CN(C(=O)N1CCOc2cc(C(=O)NO)ccc2C1)c1ccccc1	> 500
C[C@@H]1CN(c2ccccc2)Cc2ccc(C(=O)NO)cc2O1	100 to 500
COc1ccc(S(=O)(=O)N2Cc3ccc(C(=O)NO)cc3O[C@H](C)C2)cc1	100 to 500
COc1ccc(CN2Cc3ccc(C(=O)NO)cc3O[C@H](C)C2)cc1	100 to 500
COc1ccc(NC(=O)N2Cc3ccc(C(=O)NO)cc3O[C@H](C)C2)cc1	100 to 500
C[C@H]1CN(c2ccccc2)Cc2ccc(C(=O)NO)cc2O1	> 500
COc1ccc(S(=O)(=O)N2Cc3ccc(C(=O)NO)cc3O[C@@H](C)C2)cc1	> 500
COc1ccc(CN2Cc3ccc(C(=O)NO)cc3O[C@@H](C)C2)cc1	100 to 500
COc1ccc(NC(=O)N2Cc3ccc(C(=O)NO)cc3O[C@@H](C)C2)cc1	≤ 100
CC(C)[C@@H]1COc2cc(C(=O)NO)ccc2CN1	≤ 100
COc1ccc(CN2Cc3ccc(C(=O)NO)cc3OC[C@H]2C(C)C)cc1	≤ 100
CC(C)[C@@H]1COc2cc(C(=O)NO)ccc2CN1C	≤ 100
CC(C)[C@@H]1COc2cc(C(=O)NO)ccc2CN1c1ccccc1	100 to 500
COc1ccc(NC(=O)N2Cc3ccc(C(=O)NO)cc3OC[C@H]2C(C)C)cc1	100 to 500
CC(C)[C@H]1COc2cc(C(=O)NO)ccc2CN1	≤ 100
COc1ccc(CN2Cc3ccc(C(=O)NO)cc3OC[C@@H]2C(C)C)cc1	≤ 100
CC(C)[C@H]1COc2cc(C(=O)NO)ccc2CN1C	≤ 100
CC(C)[C@H]1COc2cc(C(=O)NO)ccc2CN1c1ccccc1	≤ 100
COCCN(C)C(=O)N1Cc2ccc(C(=O)NO)cc2OC[C@@H]1C	≤ 100
COc1ccc(NC(=O)N2Cc3ccc(C(=O)NO)cc3OC[C@@H]2C(C)C)cc1	≤ 100
O=C(NO)c1ccc2c(c1)OCCN(C(=O)OC1CCCCC1)C2	≤ 100
O=C1CN(Cc2ccccc2)Cc2cc(C(=O)NO)ccc2N1 [4-benzyl-N-hydroxy-2-oxo-2,3,4,5-tetrahydro-1H-benzo[e][1,4]diazepine-7-carboxamide]	100 to 500
O=C(NO)c1ccc2c(c1)OCCN(C1CCCCC1)C2 [4-cyclohexyl-N-hydroxy-2,3,4,5-tetrahydrobenzo[f][1,4]oxazepine-8-carboxamide]	> 500
C[C@H]1COc2cc(C(=O)NO)ccc2CN1C(=O)Oc1ccc(F)cc1 [4-fluorophenyl(S)-8-(hydroxycarbamoyl)-3-methyl-2,3-dihydrobenzo[f][1,4]oxazepine-4(5H)-carboxylate]	≤ 100
